Results taken from ChEMBL document CHEMBL1149950, “The synthesis and anti-hiv activity of pyrimidine dioxolanyl nucleosides” (Bioorg Med Chem Lett, 1993).

Assays:
MT4 [1] = assay: Tested in vitro for the cytotoxic activity against uninfected MT-4 cells; type: functional, cell-based; details: Homo sapiens
[2] = Tested in vitro for the cytotoxic activity against uninfected human peripheral blood mononuclear (PBM) cells; type: functional
[3] = Tested in vitro for the antiviral assay in mitogen stimulated human peripheral blood mononuclear (PBM) cells infected with HIV-1 (strain LAV); type: functional
Vero = assay: Tested in vitro for the cytotoxic activity against uninfected Vero cells; type: functional, cell-based; details: Chlorocebus sabaeus
CCRF-CEM = assay: Tested in vitro for the cytotoxic activity against uninfected CEM cells; type: functional, cell-based; details: Homo sapiens
MT4 [4] = assay: Tested in vitro for the cytotoxic activity against uninfected MT-4 cells at 200 uM; type: functional; details: Homo sapiens

SMILES | IC50 (MT4 [1]) | IC50 [2] | EC50 [3] | IC50 (Vero) | IC50 (CCRF-CEM) | inhibition at 200 µM (MT4 [4])
O=c1ccn([C@H]2CO[C@@H](CO)O2)c(=O)[nH]1 | > 200 µM | > 100 µM | 57.5 µM | > 100 µM |  | 
Nc1ccn([C@H]2CO[C@@H](CO)O2)c(=O)n1 |  | > 100 µM | 0.005 µM | 0.17 µM | 0.08 µM | 66%
CCc1cn(C2COC(CO)O2)c(=O)[nH]c1=O (stereo not drawn) |  | > 100 µM | > 100 µM | > 100 µM |  | 30%
O=c1[nH]c(=O)n([C@H]2CO[C@@H](CO)O2)cc1Br | > 200 µM | > 100 µM | 2.8 µM | > 100 µM |  | 
O=c1[nH]c(=O)n(C2COC(CO)O2)cc1Cl (stereo not drawn) | > 200 µM | > 100 µM | 1.7 µM | > 100 µM |  | 
O=c1[nH]c(=O)n(C2COC(CO)O2)cc1I (stereo not drawn) | > 200 µM | > 100 µM | > 100 µM | > 100 µM |  | 
O=c1[nH]c(=O)n(C2COC(CO)O2)cc1C(F)(F)F (stereo not drawn) | > 200 µM | > 100 µM | 93 µM | > 100 µM |  | 
O=c1[nH]c(=O)n([C@H]2CO[C@@H](CO)O2)cc1F |  | > 100 µM | 28.5 µM | > 100 µM | > 100 µM | 
